Results from patent publication US8927570B2, “1-naphthyl-or 1-dihydroacenaphthenyl-pyrido[B]indoles and uses thereof in treating cancers” (priority 2009, dated 2015).
pIC50: −log10 of the molar value.

How the values were obtained:
[1] = test system: Panc-1 pancreatic cancer cell line; test: In vitro antiproliferative activity, Panc-1 pancreatic cancer cell line; format: cell-based, human
Experimental: (§1) Substituted β-carbolines and analog compounds 39 to 57 were tested for antiproliferative activity against HPAC, Mia-PaCa2 and Panc-1 pancreatic cancer cell lines and MCF-7 and MDA-MB-468 breast cancer cell lines. Table 2 lists the IC50 values for the substituted β-carbolines and analogs thereof.

[2] = test system: HPAC pancreatic cancer cell line; test: In vitro antiproliferative activity, HPAC pancreatic cancer cell line; format: cell-based
Experimental: (§2) Substituted β-carboline compounds 4 to 38 were tested for antiproliferative activity against HCT116 colon cancer cells and HPAC, Mia-PaCa2 and Panc-1 pancreatic cancer cell lines. Table 1 lists the IC50 values for the substituted β-carbolines.
as §1

[3] = test system: MCF-7 breast cancer cell line; test: In vitro antiproliferative activity, MCF-7 breast cancer cell line; format: cell-based, human
Experimental: as §1

[4] = test system: Mia-PaCa2 pancreatic cancer cell line; test: In vitro antiproliferative activity, Mia-PaCa2 pancreatic cancer cell line; format: cell-based
Experimental: as §2, §1

[5] = test system: MDA-MB-468 breast cancer cell line; test: In vitro antiproliferative activity, MDA-MB-468 breast cancer cell line; format: cell-based, human; conditions: Table 2
Experimental: as §1

[6] = test system: HCT116 colon cancer cells; test: In vitro antiproliferative activity, HCT116 colon cancer cells; format: cell-based; conditions: Homo sapiens, HCT-116, Table 1
Experimental: as §2

[7] = Homo sapiens, MIA PaCa-2, Table 1
[8] = Homo sapiens, MIA PaCa-2, Table 2

Row | pIC50 ([1]; Homo sapiens, Table 1) | pIC50 ([2]; Homo sapiens, Table 1) | pIC50 [4, 7] | pIC50 [6] | Compound | further results
1 | 4.48 | 4.75 | 4.68 | 5.61 | COc1ccc2c(c1)[nH]c1c(-c3c(C)ccc4ccccc34)nccc12 [Compound 34, 7-Methoxy-1-(2-methyl-naphthalen-1-yl)-9H-β-carboline] | 
2 | < 4.30 | 4.64 | 4.33 | 5.65 | COc1ccc2c(-c3nccc4c3[nH]c3ccc(OC)cc34)cccc2c1 [Compound 35, 6-Methoxy-1-(6-methoxy-naphthalen-1-yl)-9H-β-carboline] | 
3 | 6.24 | 6.08 | 6.29 |  | c1ccc(COc2ccc3[nH]c4c(-c5cccc6ccccc56)nccc4c3c2)cc1 [Compound 36, 6-Benzyloxy-1-naphthalen-1-yl-9H-β-carboline] | 
4 | < 4.30 | 5.19 | 5.45 | 5.59 | Cc1cccc2c1[nH]c1c(-c3cccc4ccccc34)nccc12 [Compound 37, 8-Methyl-1-naphthalen-1-yl-9H-β-carboline] | 
5 | 4.32 | 4.77 | 4.32 | 5.52 | COc1ccc2[nH]c3c(-c4ccc(-c5ccccn5)cc4)nccc3c2c1 [Compound 38, 6-Methoxy-1-(4-pyridin-2-yl-phenyl)-9H-β-carboline] | 

The next lines start with the compound.

Row | Compound | pIC50 ([1]; Homo sapiens, Table 1) | pIC50 ([2]; Homo sapiens, Table 1) | pIC50 [4, 7] | pIC50 [6] | further results
6 | 1-(1,2-Dihydroacenaphth alen-5-yl)-6-methoxy-9H-pyrido[3,4-b]indole [Compound 47] |  |  |  |  | pIC50 ([1]; Table 2): < 4.30; pIC50 ([2]; Table 2): 5.32; pIC50 ([3]; Table 2): 5.19; pIC50 ([4]; Table 2): 5.53; pIC50 [5]: 5.35
7 | COc1ccc2c(c1)[nH]c1c(-c3cccnc3)nccc12 [Compound 5, 1-Pyridin-3-yl-7-methoxy-9H-β-carboline] | < 4.30 | < 4.30 | 4.35 |  | 
8 | COc1ccc2c(c1)[nH]c1c(-c3ccoc3)nccc12 [Compound 8, 1-Furan-3-yl-7-methoxy-9H-β-carboline] | < 4.30 | 4.35 | 4.42 |  | 
9 | COc1ccc2c(c1)[nH]c1c(-c3nccc4ccccc34)nccc12 [Compound 12, 1-Isoquinolin-1-yl-7-methoxy-9H-β-carboline] | < 4.30 | 4.46 | 4.31 |  | 
10 | COc1ccc2[nH]c3c(-c4cccc5nccnc45)nccc3c2c1 [Compound 13, 6-Methoxy-1-quinoxalin-5-yl-9H-β-carboline] | < 4.30 | < 4.30 | < 4.30 | 4.58 | 
11 | COc1ccc2c(c1)[nH]c1c(-c3cccc4nccnc34)nccc12 [Compound 14, 7-Methoxy-1-quinoxalin-5-yl-9H-β-carboline] | < 4.30 | < 4.30 | < 4.30 | 4.30 | 
12 | COc1ccc2[nH]c3c(-c4cncc5ccccc45)nccc3c2c1 [Compound 15, 1-Isoquinolin-4-yl-6-methoxy-9H-β-carboline] | 4.98 | 5.13 | 5.33 | 5.24 | 
13 | COc1ccc2c(c1)[nH]c1c(-c3cncc4ccccc34)nccc12 [Compound 16, 1-Isoquinolin-4-yl-7-methoxy-9H-β-carboline] | < 4.30 | 4.35 | 4.43 | 4.47 | 
14 | COc1ccc2[nH]c3c(-c4cnc5ccccc5c4)nccc3c2c1 [Compound 17, 6-Methoxy-1-quinolin-3-yl-9H-β-carboline] | 4.54 | 4.66 | 4.77 | 4.85 | 
15 | COc1ccc2c(c1)[nH]c1c(-c3cnc4ccccc4c3)nccc12 [Compound 18, 7-Methoxy-1-quinolin-3-yl-9H-β-carboline] | 4.43 | 4.84 | 4.78 | 4.88 | 
16 | COc1ccc2c(c1)[nH]c1c(-c3cccc4ccccc34)nccc12 [Compound 20, 7-Methoxy-1-naphthalen-1-yl-9H-β-carboline] | < 4.30 | 4.59 | 5.18 | 5.44 | 
17 | COc1ccc2[nH]c3c(-c4cccc5ncccc45)nccc3c2c1 [Compound 21, 6-Methoxy-1-quinolin-5-yl-9H-β-carboline] | 5.12 | 5.23 | 5.59 | 6.05 | 
18 | COc1ccc2c(c1)[nH]c1c(-c3cccc4ncccc34)nccc12 [Compound 22, 7-Methoxy-1-quinolin-5-yl-9H-β-carboline] | < 4.30 | < 4.30 | 4.54 | 4.89 | 
19 | COc1ccc2[nH]c3c(-c4cccc5cnccc45)nccc3c2c1 [Compound 23, 1-Isoquinolin-5-yl-6-methoxy-9H-β-carboline] | 4.67 | 4.80 | 5.01 | 5.05 | 
20 | COc1ccc2c(c1)[nH]c1c(-c3cccc4cnccc34)nccc12 [Compound 24, 1-Isoquinolin-5-yl-7-methoxy-9H-β-carboline] | < 4.30 | 4.46 | 4.62 | 4.82 | 
21 | COc1ccc2[nH]c3c(-c4ccc5ccccc5c4)nccc3c2c1 [Compound 25, 6-Methoxy-1-naphthalen-2-yl-9H-β-carboline] | 5.08 | 5.25 | 5.87 | 6.17 | 

Row | Compound | pIC50 ([1]; Homo sapiens, Table 1) | pIC50 ([2]; Homo sapiens, Table 1) | pIC50 [4, 7] | pIC50 [6] | further results
22 | COc1ccc2c(c1)[nH]c1c(-c3ccc4ccccc4c3)nccc12 [Compound 26, 7-Methoxy-1-naphthalen-2-yl-9H-β-carboline] | 4.32 | 4.68 | 4.66 | 4.77 | 
23 | COc1ccc2[nH]c3c(-c4c5ccccc5cc5ccccc45)nccc3c2c1 [Compound 27, 1-Anthracen-9-yl-6-methoxy-9H-β-carboline] | 4.98 | 5.22 | 5.61 | 5.68 | 
24 | COc1ccc2c(c1)[nH]c1c(-c3c4ccccc4cc4ccccc34)nccc12 [Compound 28, 1-Anthracen-9-yl-7-methoxy-9H-β-carboline] | 4.83 | 5.26 | 5.44 | 5.77 | 
25 | COc1ccc2[nH]c3c(-c4cc5ccccc5c5ccccc45)nccc3c2c1 [Compound 29, 6-Methoxy-1-phenanthren-9-yl-9H-β-carboline] | 4.75 | 6.27 | 6.08 | 6.28 | 
26 | COc1ccc2c(c1)[nH]c1c(-c3cc4ccccc4c4ccccc34)nccc12 [Compound 30, 7-Methoxy-1-phenanthren-9-yl-9H-β-carboline] | < 4.30 | 5.25 | 5.80 | 6.06 | 
27 | COc1ccc2[nH]c3c(-c4ccccc4)nccc3c2c1 [Compound 31, 6-Methoxy-1-phenyl-9H-β-carboline] | < 4.30 | 4.35 | 4.43 | 4.47 | 
28 | COc1ccc2c(c1)[nH]c1c(-c3ccccc3)nccc12 [Compound 32, 7-Methoxy-1-phenyl-9H-β-carboline] | < 4.30 | 4.47 | 4.46 | 4.50 | 
29 | COc1ccc2[nH]c3c(-c4c(C)ccc5ccccc45)nccc3c2c1 [Compound 33, 6-Methoxy-1-(2-methyl-naphthalen-1-yl)-9H-β-carboline] | 4.70 | 5.03 | 5.65 | 5.74 | 
30 | COc1cccc2c1[nH]c1c(-c3cccc4ccccc34)nccc12 [Compound 39, 8-methoxy-1-(naphthalen-1-yl)-9H-pyrido[3,4-b]indole] |  |  |  |  | pIC50 ([1]; Homo sapiens, Table 2): 4.58; pIC50 ([2]; Homo sapiens, Table 2): 4.69; pIC50 ([3]; Homo sapiens, MCF7, Table 2): < 5.00; pIC50 [4, 8]: 4.50; pIC50 ([5]; Homo sapiens): < 5.00
31 | Oc1ccc2[nH]c3c(-c4cccc5ccccc45)nccc3c2c1 [Compound 40, 1-(naphthalen-1-yl)-9H-pyrido[3,4-b]indol-6-ol] |  |  |  |  | pIC50 ([3]; Homo sapiens, MCF7, Table 2): 4.47; pIC50 ([5]; Homo sapiens): 4.99
32 | COc1ccc2[nH]c3c(-c4cccc5ccccc45)ncc(-c4ccccc4)c3c2c1 [Compound 41, 6-methoxy-1-(naphthalen-1-yl)-4-phenyl-9H-pyrido[3,4-b]indole] |  |  |  |  | pIC50 ([1]; Homo sapiens, Table 2): < 5.00; pIC50 ([2]; Homo sapiens, Table 2): 5.11; pIC50 ([3]; Homo sapiens, MCF7, Table 2): < 5.00; pIC50 [4, 8]: 5.44; pIC50 ([5]; Homo sapiens): < 5.00
33 | CNS(=O)(=O)Cc1ccc2[nH]c3c(-c4cccc5ccccc45)nccc3c2c1 [Compound 42, N-methyl-1-(1-(naphthalen-1-yl)-9H-pyrido[3,4-b]indol-6-yl)methanesulfonamide] |  |  |  |  | pIC50 ([1]; Homo sapiens, Table 2): 5.21; pIC50 ([2]; Homo sapiens, Table 2): 5.42; pIC50 ([3]; Homo sapiens, MCF7, Table 2): 5.69; pIC50 [4, 8]: 6.24; pIC50 ([5]; Homo sapiens): 5.95
34 | Cc1cccc2[nH]c3c(-c4cccc5ccccc45)nccc3c12 [Compound 43, 5-methyl-1-(naphthalen-1-yl)-9H-pyrido[3,4-b]indole] |  |  |  |  | pIC50 ([1]; Homo sapiens, Table 2): 5.34; pIC50 ([2]; Homo sapiens, Table 2): 5.39; pIC50 ([3]; Homo sapiens, MCF7, Table 2): 5.11; pIC50 [4, 8]: 5.93; pIC50 ([5]; Homo sapiens): 5.85
35 | COc1ccc2[nH]c3c(-c4cccc5c(F)cccc45)nccc3c2c1 [Compound 44, 1-(5-fluoronaphthalen-1-yl)-6-methoxy-9H-pyrido[3,4-b]indole] |  |  |  |  | pIC50 ([1]; Homo sapiens, Table 2): 5.59; pIC50 ([2]; Homo sapiens, Table 2): 5.63; pIC50 ([3]; Homo sapiens, MCF7, Table 2): 5.18; pIC50 [4, 8]: 6.48; pIC50 ([5]; Homo sapiens): 5.92
36 | COc1ccc2[nH]c3c(-c4cccc5c(Br)cccc45)nccc3c2c1 [Compound 45, 1-(5-bromonaphthalen-1-yl)-6-methoxy-9H-pyrido[3,4-b]indole] |  |  |  |  | pIC50 ([1]; Homo sapiens, Table 2): 5.53; pIC50 ([2]; Homo sapiens, Table 2): 5.21; pIC50 ([3]; Homo sapiens, MCF7, Table 2): 5.16; pIC50 [4, 8]: 5.93; pIC50 ([5]; Homo sapiens): 5.75
